Experimental data from patent US20100069393A1, “METHOD OF TREATMENT AND AGENTS USEFUL FOR SAME” (PRANA BIOTECHNOLOGY LIMITED, priority 2006, published 2010).

Assays:
[1] = Neurotoxicity assay: MTS viability of primary cortical neuronal cultures; assay type: cell-based, mouse; conditions: BL6Jx129sv, mouse, primary cortical neuronal cultures, Neuronal cells, read-out: Cytotoxicity (% viable at 1 and 10 uM); for viability at 4 days, 1 uM: test compound 1 uM; for viability at 4 days, 10 uM: test compound 10 uM
Protocol: Media was then replaced with Neurobasal media (Invitrogen Life Technologies) and B27 supplements (Invitrogen Life Technologies). Cultures were maintained at 37° C. in 5% CO2. Prior to experimentation, the culture medium was replaced with Neurobasal media and B27 minus antioxidants (Invitrogen Life Technologies).
Cell viability is determined using the MTS assay. Culture medium is replaced with fresh neurobasal medium plus B27 supplements minus antioxidants. 1/10th volume MTS solution (Cell Titre 96 Aqueous One, Promega Corporation) and incubated at 37° C., 2 hrs. 200 microlitre aliquots are measured with a spectrophotometer at 560 nm.
Neuronal cortical cells were cultured for five days as per Assay 2 in NB media and B27 supplement.
On day six the test compounds were added to the neuronal cell cultures in NB media and B27 supplement minus antioxidants.
Test compounds were dissolved in 100% DMSO to a concentration of 2.5 mM (10 mM if excess compound was weighed out per vial—then diluted to 2.5 mM). […] Test compounds were not added directly to cells, instead they were added to a 48 well ‘Drug Plate’ as comprised below:
The Drug Plate was incubated at 37° C. for 15 mins. 200 μl of each well was added in triplicate to the corresponding cell plate. The cell plate was incubated at 37 C, for 4 days.
On completion of the assay, 1/10 volume MTS was added per well of plate (i.e. 25 μl/250 μl). The plates were incubated at 37 C for 2 hrs, and then absorbance was read at 560 nm.

[2] = Cytotoxicity: viability of M17 cells; conditions: human, M17 neuroblastoma cells, Cytotoxicity (% viable at 1 and 10 uM); for viability at 1 uM: test compound 1 uM; for viability at 10 uM: test compound 10 uM

| SMILES | viability at 4 days, 1 uM [1] [%] | viability at 4 days, 10 uM [1] [%] | viability at 1 uM [2] [%] | viability at 10 uM [2] [%] |
| --- | --- | --- | --- | --- |
| O=S(=O)(O)c1cc(I)c(O)c2ncccc12 | 70 | 71 | – | – |
| Oc1c(I)cc(-c2ccccc2C(F)(F)F)c2cccnc12 | 91 | 90 | – | – |
| Cc1ccccc1-c1cc(I)c(O)c2ncccc12 | 99 | 38 | – | – |
| COc1ccccc1-c1cc(-c2ccccc2OC)c2cccnc2c1O | 100 | 52 | – | – |
| COc1ccccc1-c1cc(I)c(O)c2ncccc12 | 91 | 35 | – | – |
| Oc1c(-c2ccccc2C(F)(F)F)cc(Cl)c2cccnc12 | 96 | 93 | – | – |
| Oc1c(I)cc(-c2ccccc2F)c2cccnc12 | 92 | 34 | – | – |
| Oc1ccccc1-c1cc(Cl)c2cccnc2c1O | 100 | 70 | – | – |
| O=C(NCCc1c[nH]cn1)c1ccc2cccc(O)c2n1 | 100 | 100 | – | – |
| O=C(NCc1ccccn1)c1ccc2cccc(O)c2n1 | 96 | 85 | – | – |
| O=C(NCCc1ccccn1)c1ccc2cccc(O)c2n1 | 95 | 93 | – | – |
| O=C(Nc1ccccc1O)c1ccc2cccc(O)c2n1 | 104 | 92 | – | – |
| O=C(Nc1nccs1)c1ccc2cccc(O)c2n1 | 100 | 100 | – | – |
| Cc1cnc(NC(=O)c2ccc3cccc(O)c3n2)s1 | 94 | 68 | – | – |
| O=c1c(-c2ccc(Cl)cc2)cnc2c(O)cccn12 | 97 | 42 | 41.2 | 25.8 |
| Nn1cnc2c(O)c(Cl)cc(Cl)c2c1=O | 103 | 101 | 113 | 104 |
| O=c1c2cccc(O)c2ncn1Cc1ccccn1 | – | – | 109 | 96 |
| O=c1c2cccc(O)c2ncn1CC1CC1 | – | – | 104 | 111 |
| CCc1cnc2c(O)cccn2c1=O | – | – | 96.1 | 27.1 |
| CCn1cnc2c(O)ccc(Cl)c2c1=O | – | – | 101 | 85.4 |

| SMILES | viability at 4 days, 1 uM [1] [%] | viability at 4 days, 10 uM [1] [%] | viability at 1 uM [2] [%] | viability at 10 uM [2] [%] |
| --- | --- | --- | --- | --- |
| CCCn1cnc2c(O)ccc(Cl)c2c1=O | – | – | 89.4 | 79.4 |
| O=c1c2c(Cl)ccc(O)c2ncn1CC1CC1 | – | – | 86.3 | 57.6 |
| O=c1c2c(Cl)ccc(O)c2ncn1Cc1ccccn1 | – | – | 93.6 | 88.4 |
| O=c1c2c(Cl)cc(I)c(O)c2ncn1Cc1ccccn1 | – | – | 102 | 99.2 |
| CCc1cnc2c(O)cccn2c1=S | – | – | 93.3 | 73.7 |
| O=C(NCc1ccc(F)cc1)c1cnc2c(O)cccn2c1=O | – | – | 76.7 | 54.2 |
| O=c1c2cccc(O)c2ncn1-c1ccc(F)cc1 | – | – | 92.7 | 67.5 |
| CCCCNC(=O)c1cnc2c(O)cccn2c1=O | – | – | 98.8 | 48.4 |
| O=c1c2ccc(I)c(O)c2ncn1-c1ccc(F)cc1 | – | – | 94.6 | 30.2 |
| CCN(CC)CCn1cnc2c(O)c(I)ccc2c1=O | – | – | 106 | 41.4 |
| O=c1c2c(Cl)cc(I)c(O)c2ncn1-c1cccnc1 | – | – | 97.4 | 95 |
| CCCNC(=O)Cn1cnc2c(O)c(I)ccc2c1=O | – | – | 84.3 | 95.5 |
| CCN(CC)C(=O)Cn1cnc2c(O)c(I)ccc2c1=O | – | – | 92.2 | 98.7 |
| O=C1c2ccccc2C(=O)N1CCn1cnc2c(O)c(I)ccc2c1=O | – | – | 127 | 105 |
| O=C(Nc1nc2ccc(F)cc2s1)c1cnc2c(O)cccn2c1=O | – | – | 60.1 | 34.2 |
| CCCCCn1cnc2c(O)c(I)ccc2c1=O | – | – | 86.3 | 38.5 |
| O=C(Cn1cnc2c(O)cccc2c1=O)Nc1ccccn1 | – | – | 110 | 98.2 |
| CCC(C)Cn1cnc2c(O)cccc2c1=O (stereo not shown) | – | – | 103 | 47.2 |
| O=C1c2ccccc2C(=O)N1CCn1cnc2c(O)cccc2c1=O | – | – | 104 | 106 |
